Laboratory results taken from US9637473B2, “Acrylamide derivatives as antimalarial agents” (priority 2013, dated 2017).
Counter-ions that a name gives are not always drawn.

System: P. Falciparum NF54
Assay: Plasmodium falciparum in vitro assay ([3H]-hypoxanthine incorporation)
Assay type: cell-based
Conditions: Plasmodium falciparum, Erythrocyte, P. Falciparum NF54, erythrocytic stages in human red blood cells, 50% human serum
Description: In Vitro Antimalarial Activity: Plasmodium falciparum In Vitro Assay: In vitro activity against erythrocytic stages of P. Falciparum in human red blood cells is determined using a [^3H]-hypoxanthine incorporation assay. One strain sensitive to all drugs (P. […] After 48 hours, [^3H]-hypoxanthine (0.5 μCi) is added to each well of a plate. The plates are incubated for a further 24 hours under the same conditions then harvested with a Betaplate cell harvester (Wallac) and washed with distilled water. The dried filters are inserted into a plastic foil with 10 mL of scintillation fluid and counted in a Betaplate liquid scintillation counter. IC50 values are calculated from sigmoidal inhibition curves using Microsoft Excel.

Row | IC50 [µM] | Compound
1 | 0.296 | CN(c1ccncc1)c1ccc(CN(C(=O)/C=C/c2ccc(C(F)(F)F)cc2)C2CCN(Cc3ncccn3)CC2)cc1 [Example 29, (E)-N-[4-(Methyl-pyridin-4-yl-amino)-benzyl]-N-(1-pyrimidin-2-ylmethyl-piperidin-4-yl)-3-(4-trifluoromethyl-phenyl)-acrylamide]
2 | 0.042 | CN1CCC(N2CC3(CC(N(Cc4ccc(N(C)c5ccncc5)cc4)C(=O)/C=C/c4ccc(C(F)(F)F)cc4)C3)C2)CC1 [Example 73, (E)-N-(4-(methyl(pyridin-4-yl)amino)benzyl)-N-(2-(1-methylpiperidin-4-yl)-2-azaspiro[3.3]heptan-6-yl)-3-(4-(trifluoromethyl)phenyl)acrylamide]
3 | 0.091 | Cc1cc(Nc2ccc(CN(C(=O)/C=C/c3ccc(C(F)(F)F)cc3)C3CCN(Cc4cnn(C)c4)CC3)cc2)ccn1 [Example 50, (E)-N-[1-(1-Methyl-1H-pyrazol-4-ylmethyl)-piperidin-4-yl]-N-[4-(2-methyl-pyridin-4-ylamino)-benzyl]-3-(4-trifluoromethyl-phenyl)-acrylamide]
4 | 0.05 | COc1ccc(CN2CCC(N(Cc3ccc(N(C)c4ccncc4)cc3)C(=O)/C=C/c3ccc(C(F)(F)F)cc3)CC2)cc1 [Example 13, (E)-N-[1-(4-Methoxy-benzyl)-piperidin-4-yl]-N-[4-(methyl-pyridin-4-yl-amino)-benzyl]-3-(4-trifluoromethyl-phenyl)-acrylamide]
5 | 0.12 | CC(C)N1CCC[C@H](N(Cc2ccc(N(C)c3ccncc3)cc2)C(=O)/C=C/c2ccc(C(F)(F)F)cc2)C1 [Example 83, (E)-N-((S)-1-Isopropyl-piperidin-3-yl)-N-[4-(methyl-pyridin-4-yl-amino)-benzyl]-3-(4-trifluoromethyl-phenyl)-acrylamide]
6 | 0.303 | CC(C)N1CCC(N(Cc2cccc(Nc3ccncc3F)c2)C(=O)/C=C/c2ccc(C(F)(F)F)cc2)CC1 [Example 124, (E)-N-[3-(3-Fluoro-pyridin-4-ylamino)-benzyl]-N-(1-isopropyl-piperidin-4-yl)-3-(4-trifluoromethyl-phenyl)-acrylamide formate]
7 | 0.09 | Cc1cc(Nc2ccc(CN(C(=O)/C=C/c3ccc(C(F)(F)F)cc3)[C@H]3CCCN(C(C)C)C3)cn2)ccn1 [Example 120, (E)-N-((S)-1-Isopropyl-piperidin-3-yl)-N-[6-(2-methyl-pyridin-4-ylamino)-pyridin-3-ylmethyl]-3-(4-trifluoromethyl-phenyl)-acrylamide]
8 | 0.143 | Cc1cc(Nc2ccc(CN(C(=O)/C=C/c3ccc(C(F)(F)F)cc3)C3CCN(Cc4coc(C)n4)CC3)cc2)ccn1 [Example 36, (E)-N-[1-(2-Methyl-oxazol-4-ylmethyl)-piperidin-4-yl]-N-[4-(2-methyl-pyridin-4-ylamino)-benzyl]-3-(4-trifluoromethyl-phenyl)-acrylamide]
9 | 0.28 | Cc1cc(Nc2ccc(CN(C(=O)/C=C/c3ccc(C(F)(F)F)cc3)C3CCN(Cc4cncnc4)CC3)cc2)ccn1 [Example 49, (E)-N-[4-(2-Methyl-pyridin-4-ylamino)-benzyl]-N-(1-pyrimidin-5-ylmethyl-piperidin-4-yl)-3-(4-trifluoromethyl-phenyl)-acrylamide]
10 | 0.069 | CN1CCC(N2CCC(N(Cc3ccc(N(C)c4ccncc4)cc3)C(=O)/C=C/c3ccccc3)CC2)CC1 [Example 182, (E)-N-(1′-Methyl-[1,4′]bipiperidinyl-4-yl)-N-[4-(methyl-pyridin-4-yl-amino)-benzyl]-3-phenyl-acrylamide]
11 | 0.053 | CC(C)CCN1CC[C@H](N(Cc2ccc(N(C)c3ccncc3)cc2)C(=O)/C=C/c2ccc(C(F)(F)F)cc2)[C@H](F)C1 (racemic) [Example 77, (±)-(E)-N-(cis-3-fluoro-1-isopentylpiperidin-4-yl)-N-(4-(methyl(pyridin-4-yl)amino)benzyl)-3-(4-(trifluoromethyl)phenyl)acrylamide]
12 | 0.067 | Cc1cc(Nc2ccc(CN(C(=O)/C=C/c3ccc(C(F)(F)F)cc3)C3CCN(C)CC3)cc2)ccn1 [Example 174, (E)-N-(1-Methyl-piperidin-4-yl)-N-[4-(2-methyl-pyridin-4-ylamino)-benzyl]-3-(4-trifluoromethyl-phenyl)-acrylamide]
13 | 0.043 | Cc1cc(Nc2cccc(CN(C(=O)/C=C/c3ccc(C(F)(F)F)cc3)C3CCN(C(C)C)CC3)c2)ccn1 [Example 122, (E)-N-(1-Isopropyl-piperidin-4-yl)-N-[3-(2-methyl-pyridin-4-ylamino)-benzyl]-3-(4-trifluoromethyl-phenyl)-acrylamide formate]
14 | 0.451 | O=C(/C=C/c1ccc(C(F)(F)F)cc1)N(Cc1ccnc(N2CCCC2)c1)C1CCN(C2CCCC2)CC1 [Example 206, (E)-N-(1-Cyclopentyl-piperidin-4-yl)-N-(2-pyrrolidin-1-yl-pyridin-4-ylmethyl)-3-(4-trifluoromethyl-phenyl)-acrylamide]
15 | 0.431 | O=C(/C=C/c1ccc(C(F)(F)F)cc1)N(Cc1ccc(-c2cncnc2)cc1)C1CCN(C2CCCC2)CC1 [Example 204, (E)-N-(1-Cyclopentyl-piperidin-4-yl)-N-(4-pyrimidin-5-yl-benzyl)-3-(4-trifluoromethyl-phenyl)-acrylamide]
16 | 0.354 | CC(C)N1CCC(N(Cc2cncc(N(C)c3ccccn3)c2)C(=O)/C=C/c2ccc(C(F)(F)F)cc2)CC1 [Example 140, (E)-N-(1-Isopropyl-piperidin-4-yl)-N-[5-(methyl-pyridin-2-yl-amino)-pyridin-3-ylmethyl]-3-(4-trifluoromethyl-phenyl)-acrylamide formate]
17 | 0.256 | CN(c1ccncc1)c1ccc(CN(C(=O)/C=C/c2ccc(C(F)(F)F)cc2)C2CCN(Cc3ncc4ccccn34)CC2)cc1 [Example 20, (E)-N-(1-Imidazo[1,5-a]pyridin-3-ylmethyl-piperidin-4-yl)-N-[4-(methyl-pyridin-4-yl-amino)-benzyl]-3-(4-trifluoromethyl-phenyl)-acrylamide]
18 | 0.123 | CN(c1ccncc1)c1ccc(CN(C(=O)/C=C/c2ccc(C(F)(F)F)cc2)C2CCN(Cc3cccnc3)CC2)cc1 [Example 23, (E)-N-[4-(Methyl-pyridin-4-yl-amino)-benzyl]-N-(1-pyridin-3-ylmethyl-piperidin-4-yl)-3-(4-trifluoromethyl-phenyl)-acrylamide]

Row | Compound | IC50 [µM]
19 | CN(c1ccncc1)c1ccc(CN(C(=O)/C=C/c2cccc(F)c2)C2CCN(Cc3ccccc3)CC2)cc1 [Example 156, (E)-N-(1-Benzyl-piperidin-4-yl)-3-(3-fluoro-phenyl)-N-[4-(methyl-pyridin-4-yl-amino)-benzyl]-acrylamide] | 0.101
20 | COc1ccc(/C=C/C(=O)N(Cc2ccc(N(C)c3ccncc3)cc2)C2CCN(Cc3ccccc3)CC2)cc1 [Example 149, (E)-N-(1-Benzyl-piperidin-4-yl)-3-(4-methoxy-phenyl)-N-[4-(methyl-pyridin-4-yl-amino)-benzyl]-acrylamide] | 0.181
21 | COc1ccccc1/C=C/C(=O)N(Cc1ccc(N(C)c2ccncc2)cc1)C1CCN(Cc2ccccc2)CC1 [Example 151, (E)-N-(1-Benzyl-piperidin-4-yl)-3-(2-methoxy-phenyl)-N-[4-(methyl-pyridin-4-yl-amino)-benzyl]-acrylamide] | 0.222
